Experimental data from patent US20120130129A1, “Efficient Method for Preparing Functionalized Benzosuberenes” (BAYLOR UNIVERSITY, priority 2010, published 2012).
pIC50: −log10 of the molar value. Where two headings read alike, the source gives them in different places.

Experiments:
Bovine brain tubulin = test: Inhibition of tubulin polymerization (turbidimetric tubulin assembly); format: biochemical; settings: for pIC50: 10 μM tubulin, 20 min incubation, 30° C.; for Inhibition of tubulin assembly (in words): comparable to CA1, CA4
Protocol: Bovine brain tubulin was purified using methods previously described by Hamel (Cell Biochem. Biophys. 38:1-21 (2003)). The effect of compounds on tubulin assembly in vitro was determined by using a series of concentrations that were pre-incubated with 10 μM tubulin (1.0 mg/mL) in glutamate buffer at 30° C., followed by cooling to 0° C. After GTP was added, the samples were mixed and transferred to cuvettes at 0° C. in a recording spectrophotometer and warmed to 30° C. to initiate polymerization. Tubulin assembly was observed turbidimetrically at 350 nm. Tubulin disassembly was confirmed by cooling to 0° C. The calculated compound concentration that inhibited tubulin assembly by 50% after a 20 min incubation was defined as the IC50 value.

SK-OV-3 (ovarian) [1] = test: Sulforhodamine B (SRB) growth inhibition assay; settings: Homo sapiens
Text: (§1) Cancer cell lines were obtained from ATCC (DU-145 (prostate), SK-OV-3 (ovarian), and NCI-H460 (lung)) and maintained according to recommended conditions. Media was enriched with the recommended concentration of fetal bovine serum, as well as gentamicin and amphotericin B. The National Cancer Institute's standard SRB assay assessed cancer cell line growth inhibition, as previously described as the GI50, or the drug concentrations calculated to cause a 50% reduction in net protein increase relative to untreated cells (Vichai and Kirtikara, Nat. Protocols 1:1112-1116 (2006); Monks, et al., J. Natl. Cancer Inst. 83″757-766 (1991); Sites, et al., J. Nat. Prod. 71:313-320 (2008)). Results reported are averages of at least three separate experiments, each of which was carried out in triplicate.

DU-145 (prostate) [2] = test: Sulforhodamine B (SRB) growth inhibition assay; settings: for GI50: Homo sapiens, DU-145, read-out: Cytotoxicity (GI50) DU-145
Text: as §1

NCI-H460 (lung) [3] = test: Sulforhodamine B (SRB) growth inhibition assay; settings: for GI50: Homo sapiens, NCI-H460, read-out: Cytotoxicity (GI50) NCI-H460
Text: as §1

human cancer cell lines [4] = test: Cytotoxicity against human cancer cell lines (SRB assay, whole panel); format: cell-based; settings: each cell line of Table 2
Text: as §1

SK-OV-3 (ovarian) [5] = test system: SK-OV-3 (ovarian)
Text: as §1

DU-145 (prostate) [6] = test system: DU-145 (prostate)
Text: as §1

NCI-H460 (lung) [7] = test system: NCI-H460 (lung)
Text: as §1

human cancer cell lines [8] = settings: previous studies, U.S. Pat. No. 7,429,681; cited from earlier work
[9] = SK-OV-3, read-out: Cytotoxicity (GI50) SK-OV-3

| SMILES | GI50 (SK-OV-3 (ovarian) [5]) | GI50 (DU-145 (prostate) [6]) | GI50 (NCI-H460 (lung) [7]) | further results |
| --- | --- | --- | --- | --- |
| COc1ccc(/C=C\c2cc(OC)c(OC)c(OC)c2)c(O)c1O [CA1, Combretastatin A-1, reference compound] | – | – | – | pIC50 (Bovine brain tubulin): 5.72 |
| COc1cc(C2=CCCCc3c2ccc(OC)c3[N+](=O)[O-])cc(OC)c1OC [Compound 5, 1-Nitro-2-Methoxy-5-(3′,4′,5′-trimethoxyphenyl)-6,7,8,9-tetrahydro-5H-cyclobenzohepta-6-ene] | – | – | – | pIC50 (Bovine brain tubulin): 5.60; Inhibition of tubulin assembly (in words) (Bovine brain tubulin): potent inhibitors of tubulin assembly; GI50 (SK-OV-3 (ovarian) [1]; [9]): 152 nM; GI50 (DU-145 (prostate) [2]): 211 nM; GI50 (NCI-H460 (lung) [3]): 666 nM; Cytotoxicity compared with comparison compounds (in words) (human cancer cell lines [4]): significantly less cytotoxic than any of the comparison compounds |
| COc1ccc2c(c1N)CCCC=C2c1cc(OC)c(OC)c(OC)c1 [Compound 6, 2-Methoxy-5-(3′,4′,5′-trimethoxyphenyl)-6,7,8,9-tetrahydro-5H-cyclobenzohepta-6-ene-1-amine] | – | – | – | pIC50 (Bovine brain tubulin): 5.92; Inhibition of tubulin assembly (in words) (Bovine brain tubulin): potent inhibitors of tubulin assembly; GI50 (SK-OV-3 (ovarian) [1]; [9]): 0.0329 nM; GI50 (SK-OV-3 (ovarian) [1]; SK-OV-3, read-out: GI50 against ovarian cancer): 0.0329 nM; GI50 (DU-145 (prostate) [2]): 1.11 nM; Cytotoxicity (in words) (DU-145 (prostate) [2]; prostate cell line): strongly cytotoxic; GI50 (NCI-H460 (lung) [3]): 4.69 nM; Cytotoxicity (in words) (NCI-H460 (lung) [3]; non-small cell lung cell line): strongly cytotoxic; Cytotoxicity compared with comparison compounds (in words) (human cancer cell lines [4]): more active against each cell line than the natural products CA4 and CA1 |
| COc1cc2c(c(O)c1O)CCCC=C2c1cc(OC)c(OC)c(OC)c1 [Compound 13, 3-Methoxy-5-(3′,4′,5′-trimethoxyphenyl)-6,7,8,9-tetrahydro-5H-cyclobenzohepta-6-ene-1,2-diol] | 22700 nM | 20500 nM | 20900 nM | – |
| COc1cc2c(c(OC)c1O)CCCC=C2c1cc(OC)c(OC)c(OC)c1 [Compound 16, 1,3-Dimethoxy-5-(3′,4′,5′-trimethoxyphenyl)-6,7,8,9-tetrahydro-5H-cyclobenzohepta-6-ene-2-ol] | 7130 nM | 15700 nM | 18000 nM | – |
| COc1ccc2c(c1O)CCCC=C2c1cc(OC)c(OC)c(OC)c1 [Compound 23, 2-Methoxy-5-(3′,4′,5′-trimethoxyphenyl)-6,7,8,9-tetrahydro-5H-cyclobenzohepta-6-ene-1-ol] | – | – | – | Cytotoxicity against human cancer cell lines (in words) (human cancer cell lines [8]): picomolar cytotoxicity; pIC50 (Bovine brain tubulin): 5.77; Inhibition of tubulin assembly (in words) (Bovine brain tubulin): potent inhibitors of tubulin assembly; GI50 (SK-OV-3 (ovarian) [1]; [9]): 0.0242 nM; GI50 (DU-145 (prostate) [2]): 0.00242 nM; GI50 (NCI-H460 (lung) [3]): 0.00192 nM |
| COc1cc(C2=CCCCc3c2ccc(OC)c3OP(=O)(O)O)cc(OC)c1OC [Compound 24, Disodium 2-Methoxy-5-(3′,4′,5′-trimethoxyphenyl)-6,7,8,9-tetrahydro-5H-cyclobenzohepta-6-ene-1-phosphate] | 5.94 nM | 9.66 nM | 26.6 nM | – |
| COc1cc(C2=CCCCc3c2cc(OC)c(OC)c3O)cc(OC)c1OC [Compound 36, 1-Hydroxy-2,3-dimethoxy-5-(3′,4′,5′-trimethoxyphenyl)-6,7,8,9-tetrahydro-5H-cyclobenzoheptan-5-ene] | 18100 nM | 16300 nM | 25900 nM | – |
| COc1ccc2c(c1F)CCCC=C2c1cc(OC)c(OC)c(OC)c1 [Compound 41, 1-Fluoro-2-methoxy-5-(3′,4′,5′-trimethoxyphenyl)-6,7,8,9-tetrahydro-5H-cyclobenzoheptan-5-ene] | 0.00724 nM | 2.87 nM | 4 nM | – |
| COc1ccc2c(c1Cl)CCCC=C2c1cc(OC)c(OC)c(OC)c1 [Compound 46, 1-Chloro-2-methoxy-5-(3′,4′,5′-trimethoxyphenyl)-6,7,8,9-tetrahydro-5H-cyclobenzoheptan-5-ene] | 39.9 nM | 108 nM | 83.2 nM | – |
| COc1ccc2c(c1)CCCC=C2c1cc(OC)c(OC)c(OC)c1 [Compound 50, 2-Methoxy-5-(3′,4′,5′-trimethoxyphenyl)-6,7,8,9-tetrahydro-5H-cyclobenzoheptan-5-ene] | 36.6 nM | 26.1 nM | 51 nM | – |
| COc1cc(C2=CCCCc3c2ccc(OC)c3OC)cc(OC)c1OC [Compound 58, 1,2-Dimethoxy-5-(3′,4′,5′-trimethoxyphenyl)-6,7,8,9-tetrahydro-5H-cyclobenzohepta-6-ene] | 641 nM | 516 nM | 479 nM | – |
| COc1cc(C2(O)CCCCc3c2ccc(O)c3O)cc(OC)c1OC (stereo not shown) [Compound 63, 1,2-Dihydroxy-5-(3′,4′,5′-trimethoxyphenyl)-6,7,8,9-tetrahydro-5H-cyclobenzoheptan-5-ol] | 341 nM | 783 nM | 410 nM | – |
| COc1cc(C2=CCCCc3ccccc32)cc(OC)c1OC [Compound 65, 5-(3′,4′,5′-trimethoxyphenyl)-6,7,8,9-tetrahydro-5H-cyclobenzohepta-5-ene] | 19100 nM | 22000 nM | 32500 nM | – |
| COc1cc(C2=CCCCc3c2ccc(OC)c3O)cc(OC)c1O [Compound 71, 9-(4′-Hydroxy-3′,5′-dimethoxyphenyl)-3-methoxy-6,7-dihydro-5H-benzo[7]annulen-4-ol] | – | – | – | GI50 (SK-OV-3 (ovarian) [1]; [9]): 378 nM; GI50 (DU-145 (prostate) [2]): 579 nM; GI50 (NCI-H460 (lung) [3]): 439 nM |
